Measurements reported in article PMC8848508 (ACS Central Science, 2022).
Entries after “also recorded” stand apart in the source; their conditions may differ. Where a SMILES comes first, the peptide text is derived from it. The star is where a group is joined. Cbz = O=C(OCc1ccccc1)*

Target: SARS-CoV-2 M^Pro (Severe acute respiratory syndrome coronavirus 2, UniProt P0DTD1, Q3569G)
Assay type: cell-based

Row | SMILES | cellular inhibition of M^Pro (in words)
1 | O=c1c2ccccc2[se]n1-c1ccccc1 [ebselen] | relatively weak to undetectable
2 | CCCCCCNC(=O)n1cc(F)c(=O)[nH]c1=O [carmofur] | undetectable
3 | CCC[C@H](NC(=O)[C@@H]1[C@H]2CCC[C@H]2CN1C(=O)[C@@H](NC(=O)[C@@H](NC(=O)c1cnccn1)C1CCCCC1)C(C)(C)C)C(=O)C(=O)NC1CC1 [telaprevir] | close to undetectable
4 | CCN(CCO)CCCC(C)Nc1ccnc2cc(Cl)ccc12 (stereo not drawn) [hydroxychloroquine] | relatively weak to undetectable; also recorded: close to undetectable
5 | CC(C)(C)NC(=O)N[C@H](C(=O)N1C[C@H]2[C@@H]([C@H]1C(=O)NC(CC1CCC1)C(=O)C(N)=O)C2(C)C)C(C)(C)C (stereo partly drawn) [boceprevir] | close to undetectable; also recorded: very weak
6 | CCCC[C@@H](C=O)NC(=O)[C@H](CC(C)C)NC(=O)OCc1ccccc1 [calpeptin] | close to undetectable
7 | CC(C)C[C@@H](C=O)NC(=O)[C@H](CC(C)C)NC(=O)[C@H](CC(C)C)NC(=O)OCc1ccccc1 [MG-132] (Cbz-Leu-Leu-Leu-aldehyde) | close to undetectable
8 | CC(C)COCC(CN(Cc1ccccc1)c1ccccc1)N1CCCC1 (stereo not drawn) [bepridil] | relatively weak to undetectable; also recorded: very weak inhibition; also recorded: close to undetectable
9 | CCN(CC)CCCC(C)Nc1ccnc2cc(Cl)ccc12 (stereo not drawn) [chloroquine] | relatively weak to undetectable; also recorded: close to undetectable
